Values of other authors, collected in patent US6469171B1, “Syntheses of a variety of lamellarin compounds and analogues” (The Australian National University, priority 1998, dated 2002).

Assays:
fertilised sea urchin = fertilised sea urchin assay
P388 cell line = P388 cell line in culture
A549 cell line = A549 cell line in culture
lung cancer cell lines = conditions: by acting as a Type IV microtubule poison

Compound | inhibition of cell division (fertilised sea urchin) | cytotoxicity (P388 cell line) | cytotoxicity (A549 cell line) | activity in lung cancer cell lines (lung cancer cell lines)
COc1cc(-c2c3n(c4c(=O)oc5cc(O)c(OC)cc5c24)CCc2c-3cc(OC)c(OC)c2OC)ccc1O [Lamellarin C] | inhibition of cell division |  |  | 
COc1cc(-c2c3c4cc(OC)c(O)cc4oc(=O)c3n3ccc4cc(O)c(OC)cc4c23)ccc1O [Lamellarin D] | inhibition of cell division |  |  | 
COc1ccc(-c2c3n(c4c(=O)oc5cc(O)c(OC)cc5c24)CCc2cc(O)c(OC)cc2-3)cc1O [Lamellarin L] |  | significant cytoxicity | significant cytoxicity | 
COc1ccc(-c2c3c4cc(OC)c(O)cc4oc(=O)c3n3ccc4cc(O)c(OC)cc4c23)cc1O [Lamellarin N] |  |  |  | activity
Lamellarin I |  | significant cytoxicity | significant cytoxicity | 
Lamellarin K |  | significant cytoxicity | significant cytoxicity | 
